US10261079B2, “Method for determining kinetic profiles in drug discovery” (priority 2015, dated 2019)

Assays:
[1] = biological target: T1, PI3Kdelta (Homo sapiens, UniProt O00329); experiment: TR-FRET kinetic competitive binding, Binding Kinetic Profiling mode; details: Tracer 314 5 nM, compound 250 nM to 0
T1 construct: purchased Carna Biosciences
Excerpt: X is time, expressed in min.
The present example illustrates the kinetic characterization of two different inhibitors against the same target by using the platform of the invention in the Binding Kinetic Profiling mode. […] The characterized Tracer^314 (Life Technologies) has been used as labeled ligand (tracer).
In order to determine the kinetic profile of these inhibitors (Kon, Koff, Kd and t1/2), experimental data were fitted to the “Kinetics of competitive binding”. This model describes the kinetic behavior of two compounds when compete for the binding to the same target.
The experiment is performed as described in Example 1 for the tracer characterization. The samples are prepared in the kinase buffer A at the same concentrations described in example 1 (PI3Kdelta at 0.5 nM and Eu-antiGST antibody at 2 nM). Control wells in the microplate with PI-103 inhibitor at 10 μM are also included to account for unspecific binding. […] These serial dilutions were prepared in a mother plate (at 2 times the assay concentration) and quickly dispensed to the analysis plate, being the last one disposed in the well the kinase PI3Kdelta.
The tracer concentration (L) is also constrained to the tracer concentration employed in the assay, i.e., 5 nM in the present example. […] The term t1/2 is calculated as −ln[0.5] divided by the K4 value.

[2] = biological target: CDK8/Cyclin C (Homo sapiens, UniProt P49336); experiment: TR-FRET kinetic competitive binding, Kinetic Selectivity Profiling mode; details: Tracer 236 10 nM, kinase 2 nM
Sequence of CDK8/Cyclin C (P49336 whole entry, species assumed): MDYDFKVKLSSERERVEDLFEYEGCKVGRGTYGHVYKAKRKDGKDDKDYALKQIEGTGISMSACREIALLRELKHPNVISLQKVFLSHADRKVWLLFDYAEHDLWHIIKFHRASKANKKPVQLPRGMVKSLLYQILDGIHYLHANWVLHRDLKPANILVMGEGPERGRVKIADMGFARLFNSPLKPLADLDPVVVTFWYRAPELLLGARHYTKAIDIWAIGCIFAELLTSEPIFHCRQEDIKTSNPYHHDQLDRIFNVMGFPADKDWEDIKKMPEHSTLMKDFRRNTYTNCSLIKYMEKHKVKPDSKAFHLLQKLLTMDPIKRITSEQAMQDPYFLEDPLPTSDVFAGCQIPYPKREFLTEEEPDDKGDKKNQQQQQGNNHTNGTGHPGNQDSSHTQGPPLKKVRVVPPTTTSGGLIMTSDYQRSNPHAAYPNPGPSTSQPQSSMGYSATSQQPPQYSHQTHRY
Sequence of CDK8/Cyclin C (P24863 whole entry partner, species assumed): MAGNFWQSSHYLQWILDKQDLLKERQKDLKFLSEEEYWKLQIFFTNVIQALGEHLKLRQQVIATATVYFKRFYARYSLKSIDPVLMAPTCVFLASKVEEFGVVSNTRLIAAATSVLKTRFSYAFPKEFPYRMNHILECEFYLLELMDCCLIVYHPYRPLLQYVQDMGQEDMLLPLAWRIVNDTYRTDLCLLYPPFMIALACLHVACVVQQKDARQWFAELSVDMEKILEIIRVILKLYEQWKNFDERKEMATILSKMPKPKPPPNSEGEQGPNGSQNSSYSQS
Excerpt: SQRT is the mathematical abbreviation for squared root. X is time, expressed in min.

T1 sequence (O00329 whole entry): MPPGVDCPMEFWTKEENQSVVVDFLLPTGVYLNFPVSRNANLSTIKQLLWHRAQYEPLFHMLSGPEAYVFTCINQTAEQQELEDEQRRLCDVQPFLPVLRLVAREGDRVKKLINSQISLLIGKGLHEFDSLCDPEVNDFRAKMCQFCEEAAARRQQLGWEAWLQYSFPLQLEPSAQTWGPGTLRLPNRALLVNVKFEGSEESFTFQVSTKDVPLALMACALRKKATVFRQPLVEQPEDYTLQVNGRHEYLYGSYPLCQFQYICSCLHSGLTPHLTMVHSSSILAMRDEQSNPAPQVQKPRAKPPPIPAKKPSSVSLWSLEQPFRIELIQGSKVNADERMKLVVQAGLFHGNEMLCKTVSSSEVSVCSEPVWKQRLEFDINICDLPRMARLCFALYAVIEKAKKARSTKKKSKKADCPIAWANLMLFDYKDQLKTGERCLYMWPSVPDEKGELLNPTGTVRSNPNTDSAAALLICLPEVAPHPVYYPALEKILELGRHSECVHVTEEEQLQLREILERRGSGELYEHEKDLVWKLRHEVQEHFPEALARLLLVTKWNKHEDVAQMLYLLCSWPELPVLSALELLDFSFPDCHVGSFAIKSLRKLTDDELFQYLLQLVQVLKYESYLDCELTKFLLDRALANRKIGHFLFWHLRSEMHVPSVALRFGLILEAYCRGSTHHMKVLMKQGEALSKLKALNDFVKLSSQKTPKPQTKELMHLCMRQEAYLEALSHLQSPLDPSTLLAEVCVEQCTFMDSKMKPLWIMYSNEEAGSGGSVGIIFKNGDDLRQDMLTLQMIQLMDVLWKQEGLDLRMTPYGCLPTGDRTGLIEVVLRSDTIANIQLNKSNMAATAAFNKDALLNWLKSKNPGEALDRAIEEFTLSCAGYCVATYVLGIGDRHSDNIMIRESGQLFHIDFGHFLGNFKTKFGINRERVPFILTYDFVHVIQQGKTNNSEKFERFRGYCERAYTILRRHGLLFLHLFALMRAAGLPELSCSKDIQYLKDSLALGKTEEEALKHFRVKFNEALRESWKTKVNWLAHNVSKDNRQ
T1 sequence (P27986 whole entry partner): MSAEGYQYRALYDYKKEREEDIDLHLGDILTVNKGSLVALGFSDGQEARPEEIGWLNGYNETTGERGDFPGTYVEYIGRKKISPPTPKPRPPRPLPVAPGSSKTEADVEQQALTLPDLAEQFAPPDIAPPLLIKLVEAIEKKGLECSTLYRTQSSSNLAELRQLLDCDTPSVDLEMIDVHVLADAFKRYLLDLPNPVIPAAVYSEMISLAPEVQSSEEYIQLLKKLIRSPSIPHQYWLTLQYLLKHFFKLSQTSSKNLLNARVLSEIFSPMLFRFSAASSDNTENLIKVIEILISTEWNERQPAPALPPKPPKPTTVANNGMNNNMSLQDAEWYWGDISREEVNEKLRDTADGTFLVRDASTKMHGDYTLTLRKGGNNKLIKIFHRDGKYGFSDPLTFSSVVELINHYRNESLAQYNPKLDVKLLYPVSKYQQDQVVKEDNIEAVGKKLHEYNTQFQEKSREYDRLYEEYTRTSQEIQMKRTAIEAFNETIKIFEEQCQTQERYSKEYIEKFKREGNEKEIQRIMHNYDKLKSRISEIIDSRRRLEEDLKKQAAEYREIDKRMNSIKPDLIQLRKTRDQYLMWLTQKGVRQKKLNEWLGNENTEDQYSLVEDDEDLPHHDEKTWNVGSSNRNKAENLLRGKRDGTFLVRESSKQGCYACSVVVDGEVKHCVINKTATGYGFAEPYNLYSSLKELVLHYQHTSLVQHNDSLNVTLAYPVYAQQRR

`Cn1c(=O)n(-c2ccc(C(C)(C)C#N)cc2)c2c3cc(-c4cnc5ccccc5c4)ccc3ncc21` [BEZ235] was tested, and the “dissociation from the target” value [1] was “mili-seconds”.
`CN[C@@H]1C[C@H]2O[C@@](C)([C@@H]1OC)n1c3ccccc3c3c4c(c5c6ccccc6n2c5c31)C(=O)NC4` [Staurosporine] was tested, and the “duration of the interaction with CDK8” value [2] was 20 min.
`COC[C@H]1OC(=O)c2coc3c2[C@@]1(C)C1=C(C3=O)[C@@H]2CCC(=O)[C@@]2(C)C[C@H]1OC(C)=O` [Wortmanine] was tested, and the “dissociative half-life of the complex with PI3Kdelta (t1/2)” value [1] was “around 300 min”.
